# Patent US20150087723A1, “MICROBIAL COMPOSITION” (Rohm and Haas Company, priority 2011, published 2015)
# Like-named read-outs stand apart in the source and are kept apart here.
# Tests used:
# Format in all cases: cell-based
# [1] = test system: Escherichia coli (E. coli—ATCC #10536); test: Automated assessment of efficacy in model surfactant base (2.85% sodium cocoyl glycinate + 1.85% sodium lauroamphoacetate, pH 10), 15 seconds exposure, OD450/OD590 readout; conditions: for MBC: Escherichia coli, ATCC10536, 15 s; for No. of replicates showing growth (out of 4) / Δ OD 450 nm = OD450 (time = 16 hours) - OD450 (time zero), Mean / Δ OD 590 nm OD590 (time = 16 hours) - OD590 (time zero), Mean: model surfactant solution
# Protocol: Solutions were prepared such that the concentrations of the surfactant components and test actives were 1.1×x the final desired concentration in order to allow for dilution with the bacterial inoculum in the test. The solutions were manually adjusted to pH 10.0 by drop wise addition of sodium hydroxide solution, as measured with a phi meter at ambient temperature.
# Tests were conducted using standard microtiter plate assays using an automated liquid handling system, 270 μl of the surfactant test solution was pipetted into each well of the microtitre plate and 30 μl of the bacterial suspension was then added. After exactly 15 seconds of bacterial exposure, a 30 μl volume of bacterial cells was withdrawn and transferred to 270 μl of D/E quench solution. After 5 minutes in the D/E quench, the optical density (OD) was measured for each plate in turn at two specific wavelengths (450 nm and 590 nm). These provide a dual check of antimicrobial activity, as the OD450 reading is specific for the yellow colour of D/E quench when bacterial growth is observed, whereas OD590 is specific for the initial purple colour of the D/E quench which is retained if no bacterial growth is observed. After the time zero OD measurements, plates were then incubated at 37° C. overnight (16 hours) before repeating the OD measurements. Delta OD values were calculated by subtracting […] the initial value at time zero. Bacterial growth is observed as an increase in OD450 and a decrease in ΔOD590. To identify antibacterially efficacious systems (those preventing appreciable bacterial growth after incubation), the following threshold changes in OD readings have been adopted: if (1), OD450 increases by less than 0.2 absorbance unit on incubation and (2). OD590 decreases by less than 0.35 unit on incubation. Conversely, where OD450 increases by more than 0.2 AU and OD590 decreases by more than 0.35 unit after incubation, corresponding to a colour shift from purple to yellow, the test system allows bacterial growth and is not deemed efficacious. Four replicate measurements in the same plate have been made for each test system. The number of replicate wells showing either bacterial growth or no growth is also readily assessed by eye by following the colour change.
# Dose responses for individual components and binary mixtures of actives at a used concentration ratio were generated by sequential dilution of liquors with further surfactant solution to obtain a series of endpoints.
# In some selected cases, the combinations were also tested at the weight ratio 1:1.
# [2] = test system: Escherichia coli (E. coli—ATCC #10536); test: Synergy test: high resolution MBC microtiter plate assay, phosphate buffer containing 35% dipropylene glycol, 15 seconds contact; conditions: E. coli 10536; for SI (Synergy Index = Qa/QA + Qb/QB): at Qa and Qb, <1 synergy, 1 additivity, >1 antagonism; for Qa: MBC of the first component (A) acting alone (QA): component alone (Qb = 0)
# Text: One measure of synergy is -the industrially accepted method described by Kull, F. C.; Eisman, P. C.; Sylwestrowicz, H. D. and Mayer, R. L., in Applied Microbiology 9:538-541 (1961), using the ratio determined by the formula:
# Qa/QA+Qb/QB=Synergy Index (“SI”)
# wherein: QA=concentration of compound A (first component) in percent, acting alone, which produced an end point (MBC of Compound A). Qa =concentration of compound A in percent, in the mixture, which produced an end point. QB=concentration of compound B (second component) in percent, acting alone, which produced an end point (MBC of Compound B). Qb=concentration of compound B in percent, in the mixture, which produced an end point.
# When the sum of Qa/QA and Qb/QB is greater than one, antagonism is indicated. […] The lower the SI, the greater is the synergy shown by that particular mixture. The minimum biocidal concentration (MBC) of a microbicide is the lowest concentration tested under a specific set of conditions that provides complete kill of the tested microorganisms.
# Synergy tests were-conducted using standard microtiter plate assays with, phosphate buffer containing 35% dipropylene glycol (DPG). In this method, a wide range of combinations of chemicals was tested by conducting high resolution MBC assays of Component (A) in the presence of various concentrations of Component (B). High resolution MBCs were determined by adding varying amounts of microbicide to one column of a microtiter plate and doing subsequent ten-fold dilutions using an automated liquid handling system to obtain a series of closely spaced endpoints. The MBC plate was inoculated one column at a time with the test microorganism. An aliquot of the inoculated well was transferred at 15 seconds to a plate containing a neutralizing agent (D/E Neutralizing Broth), mixed and held for 5 minutes before being transferred to a growth plate containing trypticase soy broth (TSB). The TSB plate was incubated at 37° C. and read for the presence/absence of growth at 24 hours. The lowest level tested that provided complete kill (as evidenced by no growth in the microtitre plate) of the test organisms in 15 seconds is the minimum biocidal concentration (MBC).
# The synergy of the combinations of the present invention was determined against a bacterium, Escherichia coli (E. coli—ATCC #10536), at a concentration of approximately 1×10^8 bacteria per mL. This microorganism is representative of natural contaminants in many consumer and industrial applications.
# [3] = test system: Staphylococcus aureus (10788 strain); test: Antimicrobial efficacy in water, 15 seconds contact, mean bacterial survival NMBS by colony count
# [4] = test system: Escherichia coli (10536 strain); test: as above
# Protocol: An overnight culture of Escherichia coli (10536 strain) was prepared in 50 ml total volume of TSB broth, grown for ca. 18 hrs at 37° C. and shaken at 150 rpm. 1 ml of this overnight E. coli culture was transferred to 50 ml of fresh TSB broth and incubated at 37° C. at 150 rpm for ca. 4 hours. […] This bacterial stock was used for assaying against antimicrobial actives (in triplicate).
# The following assay describes the testing of 8 materials using 6 dilutions across half of a 96-well micro litre plate (MTP). Using this approach it is possible to assay 16 actives (without replicates) with, one full dilution plate, replicating this set up in two halves of the plate columns, 1-6 and 7-12.
# IM solutions of the test actives were prepared in dimethylsulphoxide (DMSO).
# Aliquots (270 μl) of the materials at 1.11 times the final concentration were dispensed into the wells of the MTP along one column (A1-H1). This MTP was labeled as the “Screening plate”.
# In another MTP, labeled as the “Dilution plate”, 270 μl of D/E neutralising solution from DIFCO Composition was added to column 1. The composition of the neutralising solution was as follows: pancreatic digest of casein, 5.0 g/L; Yeast Extract, 2.5 g/L; Dextrose, 10 g/L, sodium thioglycollate, 1.0 g/L, sodium thiosulphate, 6.0 g/L; sodium bisulphite, 2.5 g/L; Polysorbate 80, 5.0 g/L; lecithin 7.0 g/L; bromocresol purple, 0.02 g/L with a pH is the range 7.6±0.2.
# 270 μl of tryptone diluent solution was added to all the remaining wells of the Dilution MTP (columns 2-6).
# Bacterial stock (30 μl) was then added to the prepared 270 μl of the solution of actives in the Screening Plate and mixed, using a multichannel pipette with 8 tips to aspirate and dispense the same volume of bacterial stock in parallel to 8 wells in rows A-H. After a contact time of 15 seconds, the mixtures were quenched by transferring 30 μl volumes of the mixtures into the 270 μl D/E neutralising solution in the prepared dilution plate, using aspiration to mix. After exactly 5 minutes in the D/E neutralising solution, 30 μl volumes were transferred from column 1 to column 2 of the Dilution MTP and mixed, before transferring further 30 μl volumes from column 2 into column 3. This process was repeated serially diluting the bacteria across the plate to column 6.
# 30 μl volumes from each well in the Dilution MTP were transferred onto pre-labeled segment of Tryptone Soya Agar (TSA) plates starting from the lowest bacterial concentration (highest dilution, column 6) to the highest bacterial concentration (column 1). The TSA plates were allowed to stand for ca. 2 hours so that the 30 μl inocula spots could dry and the plates were then inverted and incubated overnight at 37° C. before enumerating the bacterial colonies at the labeled dilutions to determine the effects of the actives on bacterial growth.
# Mean bacterial survival numbers NMBS (expressed in Log CFU/ml) are obtained by first determining the segment of the TSA plate where the number of bacterial colonies is countable. From the colony number in this segment, NMBS is calculated by the formula: […]
# Here, Ncol is the colony count, and DF is the dilution factor taken from the MTP-well corresponding to the TSA plate segment (i.e. DF may range from 1 for the quench, to 6 for the highest dilution).
# [5] = in 2.85% sodium cocoyl glycinate + 1.85% sodium lauroamphoacetate solution at pH 10, E. coli, read-out: MBC (% w/v)
Structure (SMILES),"MBC [1, 5]",No. of replicates showing growth (out of 4) ([1]; component alone at 0.2% w/v),"Δ OD 450 nm = OD450 (time = 16 hours) - OD450 (time zero), Mean ([1]; component alone at 0.2% w/v)","Δ OD 590 nm OD590 (time = 16 hours) - OD590 (time zero), Mean ([1]; component alone at 0.2% w/v)",No. of replicates showing growth (out of 4) ([1]; component alone at […] w/v),SI (Synergy Index = Qa/QA + Qb/QB) [2],Log reduction S. aureus ATCC 6538 ([3]; component alone at 0.1% w/v),Log reduction E. coli ATCC 10536 ([4]; component alone at 0.1% w/v),No. of replicates showing growth (out of 4) ([1]; component alone at 0.125% w/v),"Δ OD 450 nm = OD450 (time = 16 hours) - OD450 (time zero), Mean ([1]; component alone at 0.125% w/v)","Δ OD 590 nm OD590 (time = 16 hours) - OD590 (time zero), Mean ([1]; component alone at 0.125% w/v)","Δ OD 450 nm = OD450 (time = 16 hours) - OD450 (time zero), Mean ([1]; component alone at […] w/v)","Δ OD 590 nm OD590 (time = 16 hours) - OD590 (time zero), Mean ([1]; component alone at […] w/v)",Qa: MBC of the first component (A) acting alone (QA) ([2]; complete kill in 15 seconds),other results
"C=CC(C)(O)CCC=C(C)C (racemic) [3,7-dimethylocta-1,6-dien-3-ol]",> 5000 µg/mL,4 out of 4,−0.53,0.60,4 out of 4,1.00,−0.13,0.06,,,,,,,"No. of replicates showing growth (out of 4) ([1]; component alone at 0.5% w/v): 3 out of 4; Δ OD 450 nm = OD450 (time = 16 hours) - OD450 (time zero), Mean ([1]; component alone at 0.5% w/v): −0.30; Δ OD 590 nm OD590 (time = 16 hours) - OD590 (time zero), Mean ([1]; component alone at 0.5% w/v): 0.50; Qb: MBC of the second component (B) acting alone (QB) ([2]; component alone (Qa = 0), complete kill in 15 seconds): 0.5 weight %"
CCCc1ccc(O)cc1 [4-propylphenol],> 2000 µg/mL,4 out of 4,−1.49,0.43,4 out of 4,1.00,,,4 out of 4,−1.56,0.37,,,,
CC=Cc1ccccc1O [2-propenylphenol],,,,,,,1.92,1.86,,,,,,,Log reduction S. aureus ATCC 6538 ([3]; component alone at 0.05% w/v): −0.18; Log reduction E. coli ATCC 10536 ([4]; component alone at 0.05% w/v): 1.27
CCC(C)c1ccc(O)cc1 (stereo not shown) [4-sec-butylphenol],> 2000 µg/mL,4 out of 4,−0.56,0.59,4 out of 4,1.00,,,4 out of 4,−0.56,0.60,−0.53,0.60,0.2 weight %,"No. of replicates showing growth (out of 4) ([1]; component alone at 0.175% w/v): 4 out of 4; Δ OD 450 nm = OD450 (time = 16 hours) - OD450 (time zero), Mean ([1]; component alone at 0.175% w/v): −0.54; Δ OD 590 nm OD590 (time = 16 hours) - OD590 (time zero), Mean ([1]; component alone at 0.175% w/v): 0.59"
CCC(C)c1ccccc1O (stereo not shown) [2-sec-butylphenol],1750 µg/mL,0 out of 4,−0.01,0.09,,1.00,,,,,,,,0.2 weight %,"No. of replicates showing growth (out of 4) ([1]; component alone at 0.05% w/v): 4 out of 4; Δ OD 450 nm = OD450 (time = 16 hours) - OD450 (time zero), Mean ([1]; component alone at 0.05% w/v): −1.50; Δ OD 590 nm OD590 (time = 16 hours) - OD590 (time zero), Mean ([1]; component alone at 0.05% w/v): 0.30; Phenol MBC %(w/v) ([1]; phenol alone, model surfactant, E. Coli): 0.175 %(w/v)"
C/C=C/c1ccccc1O [(E)-2-(prop-1-enyl)phenol],,4 out of 4,−0.53,0.63,4 out of 4,1.00,,,,,,−0.57,0.58,,"MBC ([1]; pH 10, read-out: MBC (% w/v)): > 2000 µg/mL; No. of replicates showing growth (out of 4) ([1]; component alone at 0.1% w/v): 4 out of 4; Δ OD 450 nm = OD450 (time = 16 hours) - OD450 (time zero), Mean ([1]; component alone at 0.1% w/v): −0.60; Δ OD 590 nm OD590 (time = 16 hours) - OD590 (time zero), Mean ([1]; component alone at 0.1% w/v): 0.59"
